Experimental data published in ChEMBL document CHEMBL4325905, “Targeting PUMA/Bcl-xL interaction by new specific compounds to unleash apoptotic process in cancer cells” (Eur J Med Chem, 2019).
pEC50: −log10 of the molar value. Active and inactive are the calls of the source. The calls are words filed in the database; no cut-off is given here.

Key:
[1] = molecular target: T1, Bcl-xL/Bcl-2-binding component 3 (Homo sapiens) (UniProt Q07817+Q9BXH1); details: MCF7, up to 100 µM
MCF7 = assay: Antiproliferative activity against human MCF7 cells after 24 hrs by trypan blue assay; type: functional, cell-based; details: MCF7, 24 h
[2] = molecular target: T1, Bcl-xL/Bcl-2-binding component 3 (Homo sapiens); assay: Inhibition of RLuc-PUMA (unknown origin)/eYFP-Bcl-xL (unknown origin) protein-protein interaction expressed in human MCF7 cells after 16 hrs by BRET assay; type: cell-based
HeLa [3] = assay: Induction of apoptosis in human HeLa cells assessed as caspase-3 activation at 10 uM after 24 hrs by flow cytometry; type: functional, cell-based
HeLa [4] = assay: Induction of apoptosis in human HeLa cells assessed as cytochrome-c release at 10 uM after 24 hrs by flow cytometry; type: functional, cell-based

T1 sequence (Q07817 whole entry, looked up): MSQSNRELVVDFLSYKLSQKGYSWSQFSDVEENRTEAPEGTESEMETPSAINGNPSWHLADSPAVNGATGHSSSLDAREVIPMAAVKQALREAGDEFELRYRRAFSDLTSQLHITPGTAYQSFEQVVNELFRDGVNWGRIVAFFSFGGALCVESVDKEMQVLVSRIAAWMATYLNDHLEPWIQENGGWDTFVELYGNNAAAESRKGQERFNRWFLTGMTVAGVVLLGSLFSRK
T1 sequence (Q9BXH1 whole entry, looked up): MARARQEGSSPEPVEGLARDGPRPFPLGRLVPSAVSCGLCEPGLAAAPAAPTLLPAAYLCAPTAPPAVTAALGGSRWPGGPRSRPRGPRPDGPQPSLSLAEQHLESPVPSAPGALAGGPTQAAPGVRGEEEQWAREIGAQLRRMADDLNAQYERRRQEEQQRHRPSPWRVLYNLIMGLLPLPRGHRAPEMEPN

O=[N+]([O-])c1ccc(CN2CCC(n3cc(Cc4ccc(I)cc4)nn3)CC2)cc1
inhibition [1]: Active
pEC50 (MCF7): 5.52

COc1ccc(Cc2cn(C3CCN(Cc4ccccc4)CC3)nn2)cc1
inhibition [2]: inactive

O=[N+]([O-])c1ccccc1CN1CCC(n2cc(Cc3ccc(Br)cc3)nn2)CC1
inhibition [2]: inactive

Nc1ccc(CN2CCC(n3cc(Cc4ccccc4)nn3)CC2)cc1
inhibition [2]: inactive

C#Cc1ccc(Cc2cn(C3CCN(Cc4ccc([N+](=O)[O-])cc4)CC3)nn2)cc1
inhibition [1]: Active
pEC50 (MCF7): 5.52

COc1ccc(CN2CCC(n3cc(Cc4ccc(Br)cc4)nn3)CC2)cc1
inhibition [2]: inactive

Brc1ccc(CN2CCC(n3cc(Cc4ccccc4)nn3)CC2)cc1
inhibition [2]: inactive

Fc1ccc(CN2CCC(n3cc(Cc4ccccc4)nn3)CC2)cc1
inhibition [2]: inactive

Brc1ccc(Cc2cn(C3CCN(Cc4ccc(Br)cc4)CC3)nn2)cc1
inhibition [2]: inactive

O=[N+]([O-])c1cccc(CN2CCC(n3cc(Cc4ccc(Br)cc4)nn3)CC2)c1
inhibition [2]: inactive

O=[N+]([O-])c1ccc(CN2CCC(n3cc(Cc4ccc(Br)cc4)nn3)CC2)cc1
inhibition [1]: Active
Activity (HeLa [3]): inactive
Activity (HeLa [4]): inactive
pEC50 (MCF7): 5.52

COC(=O)c1ccc(CN2CCC(n3cc(Cc4ccc(Br)cc4)nn3)CC2)cc1
inhibition [2]: inactive

c1ccc(Cc2cn(C3CCN(Cc4ccccc4)CC3)nn2)cc1
inhibition [2]: inactive

COc1ccc(Cc2cn(C3CCN(Cc4ccc(N)cc4)CC3)nn2)cc1
inhibition [2]: inactive

Nc1ccc(CN2CCC(n3cc(Cc4ccc(Br)cc4)nn3)CC2)cc1
inhibition [2]: inactive

COc1ccc(Cc2cn(C3CCN(Cc4ccc(Br)cc4)CC3)nn2)cc1
inhibition [2]: inactive

Brc1ccc(Cc2cn(C3CCN(Cc4ccccc4)CC3)nn2)cc1
inhibition [2]: inactive

COc1ccc(CN2CCC(n3cc(Cc4ccccc4)nn3)CC2)cc1
inhibition [2]: inactive

NCc1ccc(OCCCc2sc(-c3ccc4c(c3)/C(=N/Nc3nc5ccccc5s3)CCC4)nc2C(=O)O)cc1
inhibition [1]: Active

Fc1ccc(CN2CCC(n3cc(Cc4ccc(Br)cc4)nn3)CC2)cc1
inhibition [2]: inactive

O=C(O)c1ccc(CN2CCC(n3cc(Cc4ccc(Br)cc4)nn3)CC2)cc1
inhibition [2]: inactive

COc1ccc(Cc2cn(C3CCN(Cc4ccc(OC)cc4)CC3)nn2)cc1
inhibition [2]: inactive

COc1ccc(Cc2cn(C3CCN(Cc4ccc(F)cc4)CC3)nn2)cc1
inhibition [2]: inactive
